From PubChem BioAssay AID2060887 (Molecular Pharmacology Branch, DTP, NCI, 2025)

Tested on: 782815-120-R-J1-PDC complex spheroid viability
Experiment: Anticancer human tumor 782815-120-R-J1-PDC patient-derived colon adenocarcinoma cell line growth inhibition [RAS]
Settings: for IC50: curve of first compound; for viability, T/C: stronger effect = lower value
In short: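 Multi-cell-type spheroids: tumor cells plus HUVEC endothelial cells and mesenchymal stem cells. RAS-pathway inhibitors were combined with targeted agents, each dosed in half-log steps down from clinical Cmax, or from 10 microM when Cmax was unknown.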

[1] = second compound 0.000949 µM, first compound 0.00316 µM
[2] = second compound 0.000949 µM, first compound 0.01 µM
[3] = second compound 0.000949 µM, first compound 0.0316 µM
[4] = second compound 0.000949 µM, first compound 0.1 µM
[5] = second compound 0.003 µM, first compound 0.00316 µM
[6] = second compound 0.003 µM, first compound 0.01 µM
[7] = second compound 0.003 µM, first compound 0.0316 µM
[8] = second compound 0.003 µM, first compound 0.1 µM
[9] = second compound 0.00949 µM, first compound 0.00316 µM
[10] = second compound 0.00949 µM, first compound 0.01 µM
[11] = second compound 0.00949 µM, first compound 0.0316 µM
[12] = second compound 0.00949 µM, first compound 0.1 µM
[13] = second compound 0.03 µM, first compound 0.00316 µM
[14] = second compound 0.03 µM, first compound 0.01 µM
[15] = second compound 0.03 µM, first compound 0.0316 µM
[16] = second compound 0.03 µM, first compound 0.1 µM
[17] = second compound 0.0949 µM, first compound 0.00316 µM
[18] = second compound 0.0949 µM, first compound 0.01 µM
[19] = second compound 0.0949 µM, first compound 0.0316 µM
[20] = second compound 0.0949 µM, first compound 0.1 µM
[21] = second compound 0.3 µM, first compound 0.00316 µM
[22] = second compound 0.3 µM, first compound 0.01 µM
[23] = second compound 0.3 µM, first compound 0.0316 µM
[24] = second compound 0.3 µM, first compound 0.1 µM
[25] = second compound 0.000949 µM, first compound 0.316 µM
[26] = second compound 0.000949 µM, first compound 1 µM
[27] = second compound 0.000949 µM, first compound 3.16 µM
[28] = second compound 0.000949 µM, first compound 10 µM
[29] = second compound 0.003 µM, first compound 0.316 µM
[30] = second compound 0.003 µM, first compound 1 µM
[31] = second compound 0.003 µM, first compound 3.16 µM
[32] = second compound 0.003 µM, first compound 10 µM
[33] = second compound 0.00949 µM, first compound 0.316 µM
[34] = second compound 0.00949 µM, first compound 1 µM
[35] = second compound 0.00949 µM, first compound 3.16 µM
[36] = second compound 0.00949 µM, first compound 10 µM
[37] = second compound 0.03 µM, first compound 0.316 µM
[38] = second compound 0.03 µM, first compound 1 µM
[39] = second compound 0.03 µM, first compound 3.16 µM
[40] = second compound 0.03 µM, first compound 10 µM
[41] = second compound 0.0949 µM, first compound 0.316 µM
[42] = second compound 0.0949 µM, first compound 1 µM
[43] = second compound 0.0949 µM, first compound 3.16 µM
[44] = second compound 0.0949 µM, first compound 10 µM
[45] = second compound 0.3 µM, first compound 0.316 µM
[46] = second compound 0.3 µM, first compound 1 µM
[47] = second compound 0.3 µM, first compound 3.16 µM
[48] = second compound 0.3 µM, first compound 10 µM
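Further: spheroids exposed to compounds for 7 days before reading.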
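Wherever viability, T/C is given: 100% = DMSO vehicle control viability.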

Compound `CC(C)n1nc(-c2ccc3oc(N)nc3c2)c2c(N)ncnc21` + CCn1c(-c2cc(N3CCN(C)CC3)cnc2C(C)OC)c2c3cc(ccc31)-c1csc(n1)CC(NC(=O)C1CC1C)C(=O)N1CCCC(N1)C(=O)OCC(C)(C)C2 has an IC50 (second compound 0.000949 µM) of over 100 nM, an IC50 (second compound 0.003 µM) of 32.6 nM and an IC50 (second compound 0.00949 µM) of under 0.316 nM. The IC50 (second compound 0.03 µM) was under 0.316 nM, the IC50 (second compound 0.0949 µM) was under 0.316 nM and the IC50 (second compound 0.3 µM) was under 0.316 nM. The viability, T/C (second compound 0.000949 µM, first compound 0.000316 µM) was 79.2%, the viability, T/C (second compound 0.000949 µM, first compound 0.001 µM) was 71.7% and the viability, T/C [1] was 70.3%. It also gave a viability, T/C [2] of 71.4%, a viability, T/C [3] of 65.5% and a viability, T/C [4] of 65.9%. For the same compound, the viability, T/C (second compound 0.003 µM, first compound 0.000316 µM) was 64.2%, the viability, T/C (second compound 0.003 µM, first compound 0.001 µM) was 57.5% and the viability, T/C [5] was 59.6%. For the same compound, the viability, T/C [6] was 52.9%, the viability, T/C [7] was 53.2% and the viability, T/C [8] was 40.9%. For the same compound, the viability, T/C (second compound 0.00949 µM, first compound 0.000316 µM) was 36.3%, the viability, T/C (second compound 0.00949 µM, first compound 0.001 µM) was 34.2% and the viability, T/C [9] was 35.9%. It also gave a viability, T/C [10] of 29%, a viability, T/C [11] of 27.7% and a viability, T/C [12] of 23.7%. The viability, T/C (second compound 0.03 µM, first compound 0.000316 µM) was 19.4%, the viability, T/C (second compound 0.03 µM, first compound 0.001 µM) was 19.6% and the viability, T/C [13] was 20.6%. For the same compound, the viability, T/C [14] was 17%, the viability, T/C [15] was 14.6% and the viability, T/C [16] was 10.7%. It also gave a viability, T/C (second compound 0.0949 µM, first compound 0.000316 µM) of 15.4%, a viability, T/C (second compound 0.0949 µM, first compound 0.001 µM) of 16.2% and a viability, T/C [17] of 14.8%. It also gave a viability, T/C [18] of 14.2%, a viability, T/C [19] of 9.96% and a viability, T/C [20] of 6.66%. For the same compound, the viability, T/C (second compound 0.3 µM, first compound 0.000316 µM) was 15.2%, the viability, T/C (second compound 0.3 µM, first compound 0.001 µM) was 15.5% and the viability, T/C [21] was 12.6%. It also gave a viability, T/C [22] of 12.4%, a viability, T/C [23] of 8.16% and a viability, T/C [24] of 4.66%.
In the case of `CC1(O)CCCC1n1c(=O)c(C(F)F)cc2cnc(NC3CCN(S(C)(=O)=O)CC3)nc21` (stereo not drawn) + CCn1c(-c2cc(N3CCN(C)CC3)cnc2C(C)OC)c2c3cc(ccc31)-c1csc(n1)CC(NC(=O)C1CC1C)C(=O)N1CCCC(N1)C(=O)OCC(C)(C)C2, the IC50 (second compound 0.000949 µM) is reported as 3340 nM, the IC50 (second compound 0.003 µM) is reported as under 31.6 nM and the IC50 (second compound 0.00949 µM) is reported as under 31.6 nM. The IC50 (second compound 0.03 µM) was under 31.6 nM, the IC50 (second compound 0.0949 µM) was under 31.6 nM and the IC50 (second compound 0.3 µM) was under 31.6 nM. It also gave a viability, T/C [3] of 58.6%, a viability, T/C [4] of 48.5% and a viability, T/C [25] of 45%. The viability, T/C [26] was 53.4%, the viability, T/C [27] was 52.9% and the viability, T/C [28] was 17%. For the same compound, the viability, T/C [7] was 40.2%, the viability, T/C [8] was 45.4% and the viability, T/C [29] was 41.3%. For the same compound, the viability, T/C [30] was 41.8%, the viability, T/C [31] was 39.1% and the viability, T/C [32] was 15.1%. The viability, T/C [11] was 26.1%, the viability, T/C [12] was 28.3% and the viability, T/C [33] was 22.4%. It also gave a viability, T/C [34] of 26.3%, a viability, T/C [35] of 30% and a viability, T/C [36] of 8.61%. The viability, T/C [15] was 16.6%, the viability, T/C [16] was 17.6% and the viability, T/C [37] was 17.4%. For the same compound, the viability, T/C [38] was 15.8%, the viability, T/C [39] was 22.4% and the viability, T/C [40] was 4.67%. The viability, T/C [19] was 12.4%, the viability, T/C [20] was 13.8% and the viability, T/C [41] was 13.6%. It also gave a viability, T/C [42] of 13.5%, a viability, T/C [43] of 18.5% and a viability, T/C [44] of 5.05%. For the same compound, the viability, T/C [23] was 14.8%, the viability, T/C [24] was 12.7% and the viability, T/C [45] was 13.9%. For the same compound, the viability, T/C [46] was 15%, the viability, T/C [47] was 18.2% and the viability, T/C [48] was 4.68%.
`CCN1CCN(Cc2ccc(Nc3ncc(F)c(-c4cc(F)c5nc(C)n(C(C)C)c5c4)n3)nc2)CC1` + CCn1c(-c2cc(N3CCN(C)CC3)cnc2C(C)OC)c2c3cc(ccc31)-c1csc(n1)CC(NC(=O)C1CC1C)C(=O)N1CCCC(N1)C(=O)OCC(C)(C)C2 showed an IC50 (second compound 0.000949 µM) of over 1000 nM, an IC50 (second compound 0.003 µM) of over 1000 nM and an IC50 (second compound 0.00949 µM) of under 3.16 nM. The IC50 (second compound 0.03 µM) was under 3.16 nM, the IC50 (second compound 0.0949 µM) was under 3.16 nM and the IC50 (second compound 0.3 µM) was under 3.16 nM. It also gave a viability, T/C [1] of 75.8%, a viability, T/C [2] of 88% and a viability, T/C [3] of 92.3%. For the same compound, the viability, T/C [4] was 84.9%, the viability, T/C [25] was 94.6% and the viability, T/C [26] was 114%. It also gave a viability, T/C [5] of 58.6%, a viability, T/C [6] of 59.5% and a viability, T/C [7] of 57.9%. It also gave a viability, T/C [8] of 59.7%, a viability, T/C [29] of 62.6% and a viability, T/C [30] of 64%. The viability, T/C [9] was 34.3%, the viability, T/C [10] was 36.4% and the viability, T/C [11] was 34.4%. For the same compound, the viability, T/C [12] was 39.4%, the viability, T/C [33] was 34.8% and the viability, T/C [34] was 32.5%. It also gave a viability, T/C [13] of 20.2%, a viability, T/C [14] of 21.9% and a viability, T/C [15] of 18.5%. It also gave a viability, T/C [16] of 18%, a viability, T/C [37] of 20.3% and a viability, T/C [38] of 20.8%. It also gave a viability, T/C [17] of 15.2%, a viability, T/C [18] of 15.7% and a viability, T/C [19] of 14.5%. It also gave a viability, T/C [20] of 17%, a viability, T/C [41] of 19.3% and a viability, T/C [42] of 17.1%. The viability, T/C [21] was 15.6%, the viability, T/C [22] was 14.8% and the viability, T/C [23] was 13.6%. For the same compound, the viability, T/C [24] was 13.3%, the viability, T/C [45] was 13.2% and the viability, T/C [46] was 18.2%.
Compound `C[C@@H](NC(=O)c1ncnc(N)c1Cl)c1ncc(C(=O)Nc2cc(C(F)(F)F)c(Cl)cn2)s1` + CCn1c(-c2cc(N3CCN(C)CC3)cnc2C(C)OC)c2c3cc(ccc31)-c1csc(n1)CC(NC(=O)C1CC1C)C(=O)N1CCCC(N1)C(=O)OCC(C)(C)C2 has an IC50 (second compound 0.000949 µM) of over 10000 nM, an IC50 (second compound 0.003 µM) of over 10000 nM and an IC50 (second compound 0.00949 µM) of under 31.6 nM. For the same compound, the IC50 (second compound 0.03 µM) was under 31.6 nM, the IC50 (second compound 0.0949 µM) was under 31.6 nM and the IC50 (second compound 0.3 µM) was under 31.6 nM. For the same compound, the viability, T/C [3] was 82.2%, the viability, T/C [4] was 95.5% and the viability, T/C [25] was 76.9%. It also gave a viability, T/C [26] of 73.4%, a viability, T/C [27] of 58.8% and a viability, T/C [28] of 66.8%. For the same compound, the viability, T/C [7] was 74.1%, the viability, T/C [8] was 69.4% and the viability, T/C [29] was 62.9%. It also gave a viability, T/C [30] of 60.5%, a viability, T/C [31] of 55.1% and a viability, T/C [32] of 54.7%. The viability, T/C [11] was 47.9%, the viability, T/C [12] was 50.3% and the viability, T/C [33] was 47.7%. For the same compound, the viability, T/C [34] was 46.6%, the viability, T/C [35] was 47% and the viability, T/C [36] was 44.6%. For the same compound, the viability, T/C [15] was 25.8%, the viability, T/C [16] was 33% and the viability, T/C [37] was 32%. It also gave a viability, T/C [38] of 31.9%, a viability, T/C [39] of 37.6% and a viability, T/C [40] of 35.9%. The viability, T/C [19] was 19.7%, the viability, T/C [20] was 23.8% and the viability, T/C [41] was 25.3%. It also gave a viability, T/C [42] of 27.1%, a viability, T/C [43] of 30.8% and a viability, T/C [44] of 27.6%. The viability, T/C [23] was 18.6%, the viability, T/C [24] was 20.7% and the viability, T/C [45] was 23.1%. The viability, T/C [46] was 21.9%, the viability, T/C [47] was 26.4% and the viability, T/C [48] was 27.9%.
